The values below are quoted from earlier work in US20050142194A1, “Composition comprising CS” (ALTERGON S.A., priority 2003, published 2005).

For data set [1] the following is noted: general statement of the prior art part.
The next data set relates to pepsin. To be noted: prior art statement, middle of the twentieth century.

For chondroitin sulfate, the solubility in water entry in data set [1] is “poorly soluble in water”. In addition, the “action on the proteolytic activity of pepsin” value with pepsin is reported as “clear inhibitory action”.
As for sodium chondroitin sulfate, in data set [1], the solubility in water entry is “poorly soluble in water”.
